# Assay results published in patent US12018059B2, “Human amylin analog polypeptides and methods of use” (Intarcia Therapeutics, Inc., priority 2018, dated 2024).
# Starred links: 1 amine or outer side, 2 acyl side, 3 side chain; linkers in the order of their positions; H or OH if unused. Positions of bridges follow the written chain, without caps; N, C: chain ends. Non-standard residues stand in square brackets, D forms with d. Residues, ends and D or L forms follow the SMILES beside them. Groups on a side chain read outwards from the residue. *: point of attachment. X4 = CCCCCCCCCCCCCCCC(=O)N[C@@H](CCC(=O)NCOCCOCC(=O)NCOCCOCC(=O)*)C(=O)O; γGlu = O=C(O)[C@H](CCC(=O)[*:2])N[*:1]; Stearoyl = CCCCCCCCCCCCCCCCCC(=O)*; Palmitoyl = CCCCCCCCCCCCCCCC(=O)*
# Test: in vivo
# Set-up: species or system Sprague-Dawley rats
# Conditions: rat, iv, 0.033 mg/kg
# Description: Peptides were dissolved in sterile saline and administered as a 1-hour intravenous infusion to non-fasted male Sprague-Dawley rats (n=3 per group) via femoral vein cannula at a final dose of 0.033 mg/kg. […] Blood samples (approximately 250 μL) were collected for pharmacokinetic analysis via a jugular vein cannula at 0.25, 0.5, 0.75, 1, 1.17, 1.33, 1.5, 2, 4, 6, 8, 24, 30 and 48 hr post-start of infusion into microtainer tubes containing K2EDTA as anticoagulant and 25 μL of a protease inhibitor cocktail. Plasma was prepared by centrifugation and stored at −80° C. until analysis. The results of this analysis are shown in Table 9 and few exemplars in FIGS. 3a-3b. […]
# A 60 μL aliquot of each plasma sample was placed into to a 96-well plate. To each well was added 6 μL of 0.5% Tween-20. Plates were then vortexed mixed for 10 minutes at 1200 rpm before 180 μL of 0.1% TFA in 2:1 ethanol:acetonitrile containing an appropriate internal standard was added to each well. Plates were vortex mixed for 5 min at 1300 rpm, and then centrifuged for 10 min at 2844×g. Supernatants (180 μL) were placed into a clean 96-well plate and evaporated under a nitrogen stream at 45° C. Residues were reconstituted in 80 μL of 20% acetonitrile (aq) containing 0.1% formic acid.
# A […] aliquot of each plasma sample was diluted with […] of 10 mM ammonium acetate (pH 6.8) containing an appropriate internal standard and loaded onto an Oasis WCX microElution plate (Waters Corporation, Milford, MA) that had been pre-conditioned with […] of methanol and […] of deionized water. Samples were washed with […] of 5% ammonium hydroxide (aq) followed by […] of 20% acetonitrile in water. The analyte was eluted with […] of 5% formic acid in 75:25 acetonitrile:water. The eluent was dried under a nitrogen stream. Residues were reconstituted in 80 μL of 20% acetonitrile (aq) containing 0.1% formic acid.
# All calibration standards were prepared in control rat plasma containing K2EDTA and protease inhibitor cocktail.
# Samples and standards were analyzed by TurbolonSpray™ UPLC-MS/MS using a system consisting of a CTC HTS PAL auto-injector (Leap, Carrboro, NC), an Agilent Infinity 1290 system with column oven (Palo Alto, CA), a Valco switching valve (Houston, TX), and either an AB Sciex API 5600 TripleTOF™ or Sciex API 4000QTrap mass spectrometer (Framingham, MA). Samples were injected onto a 2.1×50 mm reverse phase C18 analytical column, typically a Waters CORTECS UPLC C18+, 1.6 μm (Waters Corporation, Milford, MA) or similar. […] Initial conditions consisted of 90% A and 10% B. The organic component was increased to 95% B over a period of 3-4 minutes, depending on the peptide. Typical flow rates were 600 μL/min. The column temperature was held constant at 40 or 50° C. Peptides were quantified by monitoring one or more product ions produced from a multiply charged parent ion.
SMILES,Vd [L/kg],clearance [mL/min/kg],half-life [h]
CCCCCCCCCCCCCCCC(=O)N[C@@H](CCC(=O)N[C@@H](CCC(=O)N[C@@H](CCC(=O)NCCCC[C@@H](NC(=O)[C@H](CCC(=O)O)NC(=O)[C@H](CC(N)=O)NC(=O)[C@H](C)NC(=O)[C@H](CC(C)C)NC(=O)[C@H](CCCNC(=N)N)NC(=O)[C@H](CCC(N)=O)NC(=O)[C@@H](NC(=O)[C@H](C)NC(=O)[C@@H]1CSSC[C@H](NC(=O)[C@@H](N)CO)C(=O)N[C@@H](CC(N)=O)C(=O)N[C@@H]([C@@H](C)O)C(=O)N[C@@H](CO)C(=O)N[C@@H]([C@@H](C)O)C(=O)N1)[C@@H](C)O)C(=O)N[C@@H](Cc1c[nH]cn1)C(=O)N[C@@H](CCCCN)C(=O)N[C@@H](CO)C(=O)N[C@@H](CO)C(=O)N[C@@H](CC(N)=O)C(=O)N[C@@H](CC(N)=O)C(=O)N[C@@H](Cc1ccccc1)C(=O)NCC(=O)N1CCC[C@H]1C(=O)N[C@H](C(=O)N[C@@H](CC(C)C)C(=O)N1CCC[C@H]1C(=O)N1CCC[C@H]1C(=O)N[C@H](C(=O)N[C@@H](CCCCN)C(=O)N[C@H](C(=O)NCC(=O)N[C@@H](CO)C(=O)N[C@@H](CCC(=O)O)C(=O)N[C@H](C(=O)N[C@@H](Cc1ccc(O)cc1)C(N)=O)[C@@H](C)O)C(C)C)[C@@H](C)O)[C@@H](C)CC)C(=O)O)C(=O)O)C(=O)O [Compound A53] (H-SCNTSTCATQRLANE[dK]([γGlu-γGlu-γGlu-Palmitoyl])HKSSNNFGPILPPTKVGSETY-NH2; disulfide 2-7),0.174,0.478,5.16
CCCCCCCCCCCCCCCCCC(=O)N[C@@H](CCC(=O)N[C@@H](CCC(=O)NCCCC[C@@H](NC(=O)[C@H](CCC(=O)O)NC(=O)[C@H](CC(N)=O)NC(=O)[C@H](C)NC(=O)[C@H](CC(C)C)NC(=O)[C@H](CCCNC(=N)N)NC(=O)[C@H](CCC(N)=O)NC(=O)[C@@H](NC(=O)[C@H](C)NC(=O)[C@@H]1CSSC[C@H](NC(=O)[C@@H](N)CO)C(=O)N[C@@H](CC(N)=O)C(=O)N[C@@H]([C@@H](C)O)C(=O)N[C@@H](CO)C(=O)N[C@@H]([C@@H](C)O)C(=O)N1)[C@@H](C)O)C(=O)N[C@@H](Cc1c[nH]cn1)C(=O)N[C@@H](CCCCN)C(=O)N[C@@H](CO)C(=O)N[C@@H](CO)C(=O)N[C@@H](CC(N)=O)C(=O)N[C@@H](CC(N)=O)C(=O)N[C@@H](Cc1ccccc1)C(=O)NCC(=O)N1CCC[C@H]1C(=O)N[C@H](C(=O)N[C@@H](CC(C)C)C(=O)N1CCC[C@H]1C(=O)N1CCC[C@H]1C(=O)N[C@H](C(=O)N[C@@H](CCCCN)C(=O)N[C@H](C(=O)NCC(=O)N[C@@H](CO)C(=O)N[C@@H](CCC(=O)O)C(=O)N[C@H](C(=O)N[C@@H](Cc1ccc(O)cc1)C(N)=O)[C@@H](C)O)C(C)C)[C@@H](C)O)[C@@H](C)CC)C(=O)O)C(=O)O [Compound A56] (H-SCNTSTCATQRLANE[dK]([γGlu-γGlu-Stearoyl])HKSSNNFGPILPPTKVGSETY-NH2; disulfide 2-7),0.469,1.34,4.29
CCCCCCCCCCCCCCCC(=O)N[C@@H](CCC(=O)NCOCCOCC(=O)NCOCCOCC(=O)N[C@@H](CCC(=O)NCCCC[C@H](NC(=O)[C@H](CCC(=O)O)NC(=O)[C@H](CC(N)=O)NC(=O)[C@H](C)NC(=O)[C@H](CC(C)C)NC(=O)[C@H](CCCNC(=N)N)NC(=O)[C@H](CCC(N)=O)NC(=O)[C@@H](NC(=O)[C@H](C)NC(=O)[C@@H]1CSSC[C@H](NC(=O)[C@@H](N)CO)C(=O)N[C@@H](CC(N)=O)C(=O)N[C@@H]([C@@H](C)O)C(=O)N[C@@H](CO)C(=O)N[C@@H]([C@@H](C)O)C(=O)N1)[C@@H](C)O)C(=O)N[C@@H](Cc1c[nH]cn1)C(=O)N[C@@H](CCCCN)C(=O)N[C@@H](CO)C(=O)N[C@@H](CO)C(=O)N[C@@H](CC(N)=O)C(=O)N[C@@H](CC(N)=O)C(=O)N[C@@H](Cc1ccccc1)C(=O)NCC(=O)N1CCC[C@H]1C(=O)N[C@H](C(=O)N[C@@H](CC(C)C)C(=O)N1CCC[C@H]1C(=O)N1CCC[C@H]1C(=O)N[C@H](C(=O)N[C@@H](CCCCN)C(=O)N[C@H](C(=O)NCC(=O)N[C@@H](CO)C(=O)N[C@@H](CCC(=O)O)C(=O)N[C@H](C(=O)N[C@@H](Cc1ccc(O)cc1)C(N)=O)[C@@H](C)O)C(C)C)[C@@H](C)O)[C@@H](C)CC)C(=O)O)C(=O)O [Compound A63] (H-SCNTSTCATQRLANEK([γGlu-X4])HKSSNNFGPILPPTKVGSETY-NH2; disulfide 2-7; N-terminus assumed),0.54,2.66,2.81

# The next lines start with the values.
Vd [L/kg],clearance [mL/min/kg],half-life [h],SMILES
0.502,1.35,4.85,CCCCCCCCCCCCCCCC(=O)NCC(=O)N[C@@H](CCC(=O)N[C@@H](CCC(=O)NCCCC[C@@H](NC(=O)[C@H](CCC(=O)O)NC(=O)[C@H](CC(N)=O)NC(=O)[C@H](C)NC(=O)[C@H](CC(C)C)NC(=O)[C@H](CCCNC(=N)N)NC(=O)[C@H](CCC(N)=O)NC(=O)[C@@H](NC(=O)[C@H](C)NC(=O)[C@@H]1CSSC[C@H](NC(=O)[C@@H](N)CO)C(=O)N[C@@H](CC(N)=O)C(=O)N[C@@H]([C@@H](C)O)C(=O)N[C@@H](CO)C(=O)N[C@@H]([C@@H](C)O)C(=O)N1)[C@@H](C)O)C(=O)N[C@@H](Cc1c[nH]cn1)C(=O)N[C@@H](CCCCN)C(=O)N[C@@H](CO)C(=O)N[C@@H](CO)C(=O)N[C@@H](CC(N)=O)C(=O)N[C@@H](CC(N)=O)C(=O)N[C@@H](Cc1ccccc1)C(=O)NCC(=O)N1CCC[C@H]1C(=O)N[C@H](C(=O)N[C@@H](CC(C)C)C(=O)N1CCC[C@H]1C(=O)N1CCC[C@H]1C(=O)N[C@H](C(=O)N[C@@H](CCCCN)C(=O)N[C@H](C(=O)NCC(=O)N[C@@H](CO)C(=O)N[C@@H](CCC(=O)O)C(=O)N[C@H](C(=O)N[C@@H](Cc1ccc(O)cc1)C(N)=O)[C@@H](C)O)C(C)C)[C@@H](C)O)[C@@H](C)CC)C(=O)O)C(=O)O [Compound A39] (H-SCNTSTCATQRLANE[dK]([γGlu-γGlu-Gly-Palmitoyl])HKSSNNFGPILPPTKVGSETY-NH2; disulfide 2-7)
0.552,23.7,0.391,CCCCCCCCCCCCCCCC(=O)N[C@@H](CCC(=O)NCCCC[C@H](NC(=O)[C@H](CC(N)=O)NC(=O)[C@H](C)NC(=O)[C@H](CC(C)C)NC(=O)[C@H](CCCNC(=N)N)NC(=O)[C@H](CCC(N)=O)NC(=O)[C@@H](NC(=O)[C@H](C)NC(=O)[C@@H]1CSSC[C@H](NC(=O)[C@@H](N)CO)C(=O)N[C@@H](CC(N)=O)C(=O)N[C@@H]([C@@H](C)O)C(=O)N[C@@H](CO)C(=O)N[C@@H]([C@@H](C)O)C(=O)N1)[C@@H](C)O)C(=O)N[C@@H](CC(C)C)C(=O)N[C@@H](Cc1c[nH]cn1)C(=O)N[C@@H](CCCCN)C(=O)N[C@@H](CO)C(=O)N[C@@H](CO)C(=O)N[C@@H](CC(N)=O)C(=O)N[C@@H](CC(N)=O)C(=O)N[C@@H](Cc1ccccc1)C(=O)NCC(=O)N1CCC[C@H]1C(=O)N[C@H](C(=O)N[C@@H](CC(C)C)C(=O)N1CCC[C@H]1C(=O)N1CCC[C@H]1C(=O)N[C@H](C(=O)N[C@@H](CCCCN)C(=O)N[C@H](C(=O)NCC(=O)N[C@@H](CO)C(=O)N[C@@H](CCC(=O)O)C(=O)N[C@H](C(=O)N[C@@H](Cc1ccc(O)cc1)C(N)=O)[C@@H](C)O)C(C)C)[C@@H](C)O)[C@@H](C)CC)C(=O)O [Compound A42] (H-SCNTSTCATQRLANK([γGlu-Palmitoyl])LHKSSNNFGPILPPTKVGSETY-NH2; disulfide 2-7)
